Reference: PMC10886162, “Synthesis of Novel Artemisinin, Ciprofloxacin, and Norfloxacin Hybrids with Potent Antiplasmodial Activity” (Antibiotics, 2024)

What was measured:
[1] = test system: CQ-resistant P. falciparum FcB1 strain; test: In vitro growth inhibition of P. falciparum FcB1 ([3H]-hypoxanthine incorporation); format: cell-based, Plasmodium falciparum
Method: (§1) The chloroquine-resistant FcB1/Colombia and Dd2/Indochina strains of Plasmodium falciparum were obtained from the Protist Collection of the National Museum of Natural History, Paris, France (n° MNHN-CEU-2016-224-PfFCB1 and MNHN-CEU-2016-222-PfDD2). The parasites were maintained in vitro on human erythrocytes in RPMI 1640 medium supplemented by 8% (v/v) heat-inactivated human serum, at 37 °C, under an atmosphere of 5% CO2. The human red blood cells and serum were provided by the Établissement Français du Sang under the C-CPSL-UNT approval no. 13/EFS/126. The in vitro drug susceptibility assays were measured by [^3H]-hypoxanthine incorporation, as previously described. The drug stock solutions were prepared in DMSO. Briefly, the assays were performed in 96-well plates. The compounds were diluted in the culture medium (100 μL per well). The parasite cultures (100 μL, 2% parasitaemia, and 1% final hematocrit) were then added to each well and incubated for 24 h at 37 °C prior to the addition of 0.5 μCi of [^3H]- hypoxanthine (GE Healthcare, Paris, France, 1 to 5 Ci·mmol/mL) per well. After a further incubation of 24 h, the plates were frozen and thawed. The cell lysates were then collected onto fiberglass filters and counted in a liquid scintillation spectrometer. The growth inhibition for each drug concentration was determined through a comparison of the radioactivity incorporated in the treated culture with that in the control culture maintained on the same plate. The drugs were first evaluated for a range of fixed concentrations of 50, 5, 0.5, 0.05, and 0.005 μg/mL. […] The IC50 value was obtained from the drug concentration–response curve, and the results were expressed in μM or nM as the mean values ± standard deviations determined from several independent experiments. Artesunate (46) was used as an antimalarial drug control.

[2] = test system: CQ-resistant Dd2 strain of P. falciparum; test: In vitro growth inhibition of P. falciparum Dd2 ([3H]-hypoxanthine incorporation); format: cell-based, Plasmodium falciparum; settings: Plasmodium falciparum; CQ-resistant Dd2; mean +/− SD of at least three independent experiments
Method: as §1

[3] = Plasmodium falciparum, FCB1, CQ-resistant FcB1, IC50 determined from the compound tested at 50, 5, 0.5 µg/mL and 50 and 5 ng/mL in triplicate (footnote b)
[4] = Plasmodium falciparum, FCB1, Table 5, CPX or NRX fragments alone
[5] = CQ-resistant FcB1, IC50 determined from the compound tested at 50, 5, 0.5 µg/mL and 50 and 5 ng/mL in triplicate (footnote b)
[6] = Plasmodium falciparum, FCB1, CQ-resistant FcB1, mean +/− standard deviation of independent experiments (at least four in Tables 1-2, at least three in Tables 3-4)

SMILES | IC50 [1, 3] [µM] | further results
CCOC(=O)c1cn(CC)c2cc(N3CCNCC3)c(F)cc2c1=O [Compound 40] | 19.7 | IC50 [1, 4]: 45.7 µM
CCCCOC(=O)c1cn(C2CC2)c2cc(N3CCN(C(c4ccccc4)(c4ccccc4)c4ccccc4)CC3)c(F)cc2c1=O [Compound 33, Butyl 1-cyclopropyl-6-fluoro-4-oxo-7-(4-tritylpiperazin-1-yl)-1,4-dihydroquinoline-3-carboxylate] | 3.9 | 
O=C(c1cn(C2CC2)c2cc(N3CCN(C(c4ccccc4)(c4ccccc4)c4ccccc4)CC3)c(F)cc2c1=O)N1CCN(c2ccnc3cc(Cl)ccc23)CC1 [Compound 36, 3-(4-(7-chloroquinolin-4-yl)piperazine-1-carbonyl)-1-cyclopropyl-6-fluoro-7-(4-tritylpiperazin-1-yl)quinolin-4(1H)-one] | 26.5 | 
CCCCOC(=O)c1cn(C2CC2)c2cc(N3CCNCC3)c(F)cc2c1=O [Compound 39] | 13.6 | IC50 [1, 4]: 7 µM
CCOC(=O)c1cn(C2CC2)c2cc(N3CCN(C(c4ccccc4)(c4ccccc4)c4ccccc4)CC3)c(F)cc2c1=O [Compound 32, Ethyl 1-cyclopropyl-6-fluoro-4-oxo-7-(4-tritylpiperazin-1-yl)-1,4-dihydroquinoline-3-carboxylate] | 41.9 | 
CCCCOC(=O)c1cn(CC)c2cc(N3CCNCC3)c(F)cc2c1=O [Compound 41] | 13.9 | IC50 [1, 4]: 8.6 µM
CCCCOC(=O)c1cn(CC)c2cc(N3CCN(C(c4ccccc4)(c4ccccc4)c4ccccc4)CC3)c(F)cc2c1=O [Compound 35, Butyl 1-ethyl-6-fluoro-4-oxo-7-(4-tritylpiperazin-1-yl)-1,4-dihydroquinoline-3-carboxylate] | 26.2 | 
O=C(c1cn(C2CC2)c2cc(N3CCNCC3)c(F)cc2c1=O)N1CCN(c2ccnc3cc(Cl)ccc23)CC1 [Compound 42] | 0.36 | IC50 [1, 5]: 0.36 µM
CC1CCC2C(C)C(CCC(=O)O)OC3OC4(C)CCC1C32OO4 (centres unmarked) [Compound 45, reference compound] | 0.264 | IC50 [1, 5]: 0.264 µM
CCOC(=O)c1cn(C2CC2)c2cc(N3CCN(C(=O)C[C@H]4O[C@@H]5O[C@@]6(C)CCC7[C@H](C)CCC([C@H]4C)[C@]75OO6)CC3)c(F)cc2c1=O (stereo partly drawn) [Compound 14, Ethyl 1-cyclopropyl-6-fluoro-4-oxo-7-(4-(2-((3R,6R,9R,10R,12R,12aR)-3,6,9-trimethyldecahydro-12H-3,12-epoxy[1,2]dioxepino[4,3-i]isochromen-10-yl)acetyl)piperazin-1-yl)-1,4-dihydroquinoline-3-carboxylate] | 0.121 | melting point: 142 to 143 °C
O=C(O)c1cn(C2CC2)c2cc(N3CCNCC3)c(F)cc2c1=O [CPX, ciprofloxacin] | 54.1 | 
CCOC(=O)c1cn(C2CC2)c2cc(N3CCNCC3)c(F)cc2c1=O [Compound 38] | 53.6 | 
CC1CCC2C(C)C(CC(=O)O)OC3OC4(C)CCC1C32OO4 (centres unmarked) [Compound 44, reference compound] | 0.401 | IC50 [1, 5]: 0.401 µM
CCn1cc(C(=O)N2CCN(c3ccnc4cc(Cl)ccc34)CC2)c(=O)c2cc(F)c(N3CCN(C(=O)C[C@H]4O[C@@H]5O[C@@]6(C)CCC7[C@H](C)CCC([C@H]4C)[C@]75OO6)CC3)cc21 (stereo partly drawn) [Compound 27, 3-(4-(7-chloroquinolin-4-yl)piperazine-1-carbonyl)-1-ethyl-6-fluoro-7-(4-(2-((3R,6R,9R,10R,12R,12aR)-3,6,9-trimethyldecahydro-12H-3,12-epoxy[1,2]dioxepino[4,3-i]isochromen-10-yl)acetyl)piperazin-1-yl)quinolin-4(1H)-one] |  | IC50 [1, 6]: 0.0066 µM; melting point: 173.6 to 174.5 °C; IC50 [2]: 0.0285 µM
CCOC(=O)c1cn(C2CC2)c2cc(N3CCN(C(=O)CC[C@H]4O[C@@H]5O[C@@]6(C)CCC7[C@H](C)CCC([C@H]4C)[C@]75OO6)CC3)c(F)cc2c1=O (stereo partly drawn) [Compound 15, Ethyl 1-cyclopropyl-6-fluoro-4-oxo-7-(4-(3-((3R,6R,9R,10R,12R,12aR)-3,6,9-trimethyldecahydro-12H-3,12-epoxy[1,2]dioxepino[4,3-i]isochromen-10-yl)propanoyl)piperazin-1-yl)-1,4-dihydroquinoline-3-carboxylate] | 1.47 | melting point: 110.4 to 111.5 °C
CCn1cc(C(=O)N2CCN(c3ccnc4cc(Cl)ccc34)CC2)c(=O)c2cc(F)c(N3CCN(C(c4ccccc4)(c4ccccc4)c4ccccc4)CC3)cc21 [Compound 37, 3-(4-(7-chloroquinolin-4-yl)piperazine-1-carbonyl)-1-ethyl-6-fluoro-7-(4-tritylpiperazin-1-yl)quinolin-4(1H)-one] |  | IC50 [1, 6]: 0.184 µM; IC50 [2]: 0.307 µM
CCOC(=O)c1cn(CC)c2cc(N3CCN(C(c4ccccc4)(c4ccccc4)c4ccccc4)CC3)c(F)cc2c1=O [Compound 34, Ethyl 1-ethyl-6-fluoro-4-oxo-7-(4-tritylpiperazin-1-yl)-1,4-dihydroquinoline-3-carboxylate] | 84.8 | 
CCn1cc(C(=O)O)c(=O)c2cc(F)c(N3CCNCC3)cc21 [NRX, norfloxacin] | 81.4 | 
CCCCOC(=O)c1cn(C2CC2)c2cc(N3CCN(C(=O)CC[C@H]4O[C@@H]5O[C@@]6(C)CCC7[C@H](C)CCC([C@H]4C)[C@]75OO6)CC3)c(F)cc2c1=O (stereo partly drawn) [Compound 17, Butyl 1-cyclopropyl-6-fluoro-4-oxo-7-(4-(3-((3R,6R,9R,10R,12R,12aR)-3,6,9-trimethyldecahydro-12H-3,12-epoxy[1,2]dioxepino[4,3-i]isochromen-10-yl)propanoyl)piperazin-1-yl)-1,4-dihydroquinoline-3-carboxylate] | 0.362 | 
C[C@@H]1CCC2[C@@H](C)[C@@H](CCC(=O)N3CCN(c4cc5c(cc4F)c(=O)c(C(=O)O)cn5C4CC4)CC3)O[C@@H]3O[C@@]4(C)CCC1[C@@]23OO4 (stereo partly drawn) [Compound 13, 1-cyclopropyl-6-fluoro-4-oxo-7-(4-(3-((3R,6R,9R,10R,12R,12aR)-3,6,9-trimethyldecahydro-12H-3,12-epoxy[1,2]dioxepino[4,3-i]isochromen-10-yl)propanoyl)piperazin-1-yl)-1,4-dihydroquinoline-3-carboxylic acid] | 2.91 | melting point: 136 to 137 °C
